From patent publication US11446286B1 (KING FAISAL UNIVERSITY, priority 2022, dated 2022)
In brackets after ≈: the same amount, converted by molar mass.

Tests used:
[1] = tested on: 31 fungal strains; experiment: In vitro antifungal assays, all isolates; format: cell-based; conditions: over the fungal strains tested
Experimental: (§1) In vitro studies were performed including a total of 31 fungal strains. The strains were obtained from the American Type Culture Collection (ATCC) or were isolated locally and provided by the fungal research centers at Alazhar and Assiut universities, Egypt. Dabigatran's antifungal activity was tested against 31 fungal strains, as previously described. (Johnson, T. R. and Case, C. L., “Laboratory experiments in microbiology” Pearson/Benjamin Cummings (2004)) The in vitro studies included a total of 31 fungal strains. Fungal strains were separately grown in universal tubes with 20 ml of Sabouraud's dextrose broth for 3-7 days to create inocula for antifungal tests. Bioassays were carried out in 10 cm sterile Petri dishes containing 15 ml Sabouraud's dextrose agar medium and microbial suspension. Using a sterile cork borer, 5 mm diameter cavities were bored in the solidified agar (3 cavities/plate) after the media had hardened. […] Controls were prepared using DMSO and fluconazole. Candida cultures were incubated for 72 hours at 27° C., while other fungal cultures were incubated for up to seven days.

[2] = tested on: Aspergillus furnigatus (RCMB 002008); experiment: In vitro antifungal assay (agar well); format: cell-based, Aspergillus fumigatus
Experimental: as §1

[3] = tested on: Aspergillus flavus AUMC No. 1276; experiment: In vitro antifungal assay (agar well); format: cell-based
Experimental: as §1

[4] = tested on: Aspergillus flavus RCMB 002002; experiment: In vitro antifungal assay (agar well); format: cell-based
Experimental: as §1

[5] = tested on: Aspergillus fumigatus AUMC No. 14358; experiment: In vitro antifungal assay (agar well); format: cell-based
Experimental: as §1

[6] = tested on: Aspergillus nidulans AUMC No. 14333; experiment: In vitro antifungal assay (agar well); format: cell-based
Experimental: as §1

[7] = tested on: Aspergillus niger AUMC No. 14408; experiment: In vitro antifungal assay (agar well); format: cell-based
Experimental: as §1

[8] = tested on: Aspergillus terreus AUMC No. 14389; experiment: In vitro antifungal assay (agar well); format: cell-based
Experimental: as §1

[9] = tested on: Aspergillus ustus AUMC No. 3605; experiment: In vitro antifungal assay (agar well); format: cell-based
Experimental: as §1

[10] = tested on: Candida albicans RCMB 005003 (1) ATCC 10231; experiment: In vitro antifungal assay (agar well); format: cell-based; conditions: 72 hours at 27° C.
Experimental: as §1

[11] = tested on: Candida alibicans AUMC No. 9160; experiment: In vitro antifungal assay (agar well); format: cell-based; conditions: 72 hours at 27° C.
Experimental: as §1

[12] = tested on: Candida glabrata AUMC No. 9166; experiment: In vitro antifungal assay (agar well); format: cell-based; conditions: 72 hours at 27° C.
Experimental: as §1

[13] = tested on: Candida lipolytica RCMB 005007; experiment: In vitro antifungal assay (agar well); format: cell-based; conditions: 72 hours at 27° C.
Experimental: as §1

[14] = tested on: Candida tropicalis AUMC No. 9158; experiment: In vitro antifungal assay (agar well); format: cell-based; conditions: 72 hours at 27° C.
Experimental: as §1

[15] = tested on: Candida tropicalis RCMB 005004; experiment: In vitro antifungal assay (agar well); format: cell-based; conditions: 72 hours at 27° C.
Experimental: as §1

[16] = tested on: Cryptococcus neoformans AUMC No. 2795; experiment: In vitro antifungal assay (agar well); format: cell-based
Experimental: as §1

[17] = tested on: Cryptococcus neoformas RCMB 0049001; experiment: In vitro antifungal assay (agar well); format: cell-based
Experimental: as §1

[18] = tested on: Fusarium moniliforme RCMB 001006; experiment: In vitro antifungal assay (agar well); format: cell-based
Experimental: as §1

[19] = tested on: Microsporum canis AUMC No. 14454; experiment: In vitro antifungal assay (agar well); format: cell-based
Experimental: as §1

[20] = tested on: Mucor circillelloides AUMC No. 3704; experiment: In vitro antifungal assay (agar well); format: cell-based
Experimental: as §1

[21] = tested on: Penicillium aurantiogriseum IMI 89372; experiment: In vitro antifungal assay (agar well); format: cell-based
Experimental: as §1

[22] = tested on: Penicillium italicum RCMB 001018 (1) IMI 193019; experiment: In vitro antifungal assay (agar well); format: cell-based
Experimental: as §1

[23] = tested on: Penicillium marneffei AUMC No. 9370; experiment: In vitro antifungal assay (agar well); format: cell-based
Experimental: as §1

[24] = tested on: Penicllium marneffeii RCMB 001034; experiment: In vitro antifungal assay (agar well); format: cell-based
Experimental: as §1

[25] = tested on: Sporotlirix schenckii AUMC No. 2739; experiment: In vitro antifungal assay (agar well); format: cell-based
Experimental: as §1

[26] = tested on: Trichophyton mentagrophytes AUMC No. 14492; experiment: In vitro antifungal assay (agar well); format: cell-based
Experimental: as §1

[27] = tested on: Trichophyton rubrum AUMC No. 1804; experiment: In vitro antifungal assay (agar well); format: cell-based
Experimental: as §1

[28] = tested on: Geotricurn candidum RCMB 026008; experiment: In vitro antifungal assay (agar well); format: cell-based, Geotricum candidum
Experimental: as §1

[29] = tested on: Penicillium expansurn RCMB 001001 IMI28169; experiment: In vitro antifungal assay (agar well); format: cell-based, Penicillium expansum
Experimental: as §1

[30] = tested on: Syncephalastrurn racemosum RCMB 016001; experiment: In vitro antifungal assay (agar well); format: cell-based, Syncephalastrum racemosum
Experimental: as §1

[31] = tested on: C. albicans systemic infection; experiment: Systemic candidiasis mouse model; format: in vivo, mice; conditions: for lung histopathology (H&E): vs non-treated infected mice; for serum levels of ALT, AST, uric acid, and creatinine: systemic candidiasis, day 7, compared with infected nontreated group (combination: also vs noninfected control)
Experimental: (§2) Four-week-old mice were obtained from Kafrelshikh university animal sourcing. Food and water were given ad libitum. The mice were handled according to the instructions and regulations of the ethics committee.
(§3) To help in the induction of fungal infection, mice were immunocompromised by Endoxan® (cyclophosphamide), injected i.v. at a dose rate of 100 mg/kg. The injection of cyclophosphamide was at three and one days before infection. Systemic candidiasis and aspergillosis were induced by intravenous injection of 0.2 ml of each cell suspension into the tail vein using 1-ml syringe and a 27-G, ½-in. needle. The C. albicans cells and Aspergillus conidia were obtained as described above. After plating, the cells were suspended in sterile saline. Each mouse received 5×10^4 blastospores. All drugs were given at a dose rate of 5 mg/kg via the oral route suspended in methylcellulose. […] Treatment was continued daily for seven days. On the seventh day, the mice were sacrificed, and blood and tissue samples were collected. Tissue samples from liver, kidney, lungs, and heart were stored in 10% formalin and fixed for histopathological and immunohistochemical examination.
(§4) Standard histopathological sections stained with hematoxylin and eosin were performed. Immunohistochemistry was performed following the instructions of the antibodies manufacturer (Theiino Scientific, Waltman, MA, USA). The antibodies comprised CD45 and CXCR4.
Serum samples from the systemic candidiasis experiments discussed above were analyzed using known techniques to detect serum levels of ALT, AST, uric acid, and creatinine.

[32] = tested on: A. fumigatus systemic infection; experiment: Systemic aspergillosis mouse model; format: in vivo, mice; conditions: for liver histopathology (H&E): vs infected animals; for heart histopathology (H&E): vs infected group; for serum levels of ALT, AST, uric acid, and creatinine: systemic A. fumigatus infection, day 7, compared with infected nontreated group (combination: also vs noninfected control)
Experimental: as §2, §3, §4
Serum samples from the systemic Aspergillus experiments discussed above were analyzed using known techniques to detect serum levels of ALT, AST, uric acid, and creatinine.

[33] = tested on: C. albicans vaginal infection; experiment: Vaginal candidiasis mouse model; format: in vivo, mice; conditions: for CD45-positive cells in vaginal tissue (IHC, semi-quantitative) / vaginal histology (H&E): topical into the vagina 5 mg/kg daily for seven days; for CXCR4 expression in the vaginal epithelial mucosa (IHC): treated for 7 days, vs C. albicans infected Model animals
Experimental: Standard histopathological sections stained with hematoxylin and eosin were performed. Immunohistochemistry was performed following the instructions of the antibodies manufacturer (Theiino Scientific, Waltman, MA, USA). The antibodies comprised CD45 and CXCR4. Mice vagina infected with C. albicans was used to evaluate the anticandidal actions of dabigatran. To help in induction of vaginal candidiasis, mice were immunocompromised by injection of 0.1 mg of β-estradiol in 10 μl of sesame oil 72 h and 24 h before vaginal infection for induction of estrus. Infection was done during the estrus phase by intravaginal dropping of the Candida blastoconidia. Each mouse received 3×10^6 blastospores into the vaginal cavity. Uninoculated control mice (the control group) were injected intravaginally with sterile saline. […] All drugs were given topically into the vagina at a dose rate of 5 mg/kg daily for seven days post-infection. On the seventh day, the mice were sacrificed, and blood and vaginal samples were collected. At ×400 magnification, five visual random fields were analyzed. An adopted procedure was used to assess the degree of infection and inflammation (Zhang, J. E., et al., “Feasibility of histological scoring and colony count for evaluating infective severity in mouse vaginal candidiasis,” Experimental Animals, 62(3): pp. 205-10 (2013)). The average scores of five fields were recorded.

[34] = immunocompromised mice, C. albicans i.v., 5 mg/kg oral daily for seven days
[35] = immunocompromised mice, A. fumigatus i.v., 5 mg/kg oral daily for seven days

CCCCCCOC(=O)NC(=N)c1ccc(NCc2nc3cc(C(=O)N(CCC(=O)OCC)c4ccccn4)ccc3n2C)cc1 [Dabigatran etexilate]
range of MIC values [1]: 8 to 256 µg/mL | MIC [2]: 64 µg/mL (≈ 102 µM) | MIC [3]: 64 µg/mL (≈ 102 µM) | MIC [4]: 128 µg/mL (≈ 204 µM) | MIC [5]: 128 µg/mL (≈ 204 µM) | MIC [6]: 64 µg/mL (≈ 102 µM) | MIC [7]: 128 µg/mL (≈ 204 µM) | MIC [8]: 128 µg/mL (≈ 204 µM) | MIC [9]: 64 µg/mL (≈ 102 µM) | MIC [10]: 16 µg/mL (≈ 25.5 µM) | MIC [11]: 32 µg/mL (≈ 51 µM) | MIC [12]: 32 µg/mL (≈ 51 µM) | MIC [13]: 16 µg/mL (≈ 25.5 µM) | MIC [14]: 128 µg/mL (≈ 204 µM) | MIC [15]: 128 µg/mL (≈ 204 µM) | MIC [16]: 32 µg/mL (≈ 51 µM) | MIC [17]: 16 µg/mL (≈ 25.5 µM) | MIC [18]: 16 µg/mL (≈ 25.5 µM) | MIC [19]: 128 µg/mL (≈ 204 µM) | MIC [20]: 64 µg/mL (≈ 102 µM) | MIC [21]: 32 µg/mL (≈ 51 µM) | MIC [22]: 64 µg/mL (≈ 102 µM) | MIC [23]: 64 µg/mL (≈ 102 µM) | MIC [24]: 256 µg/mL (≈ 408 µM) | MIC [25]: 16 µg/mL (≈ 25.5 µM) | MIC [26]: 32 µg/mL (≈ 51 µM) | MIC [27]: 32 µg/mL (≈ 51 µM) | MIC [28]: 32 µg/mL (≈ 51 µM) | MIC [29]: 128 µg/mL (≈ 204 µM) | MIC [30]: 8 µg/mL (≈ 12.7 µM) | kidney histopathology (H&E) [31, 34]: minor histological differences | liver histopathology (H&E) [31, 34]: typical hepatic architecture with the presence of very few inflammatory cells, moderate degeneration, and no necrosis | lung histopathology (H&E) [31, 34]: substantially improved | protective effect against systemic C. albicans fungal infection ([31]; mice, 5 mg/kg oral daily for seven days): potent protective effect | serum levels of ALT, AST, uric acid, and creatinine [31]: significantly decreased all serum markers | kidney histopathology (H&E) [32, 35]: modest improvements | lung histopathology (H&E), inflammation [32, 35]: decreased airspace areas because of red blood cells extravasation | liver histopathology (H&E) [32, 35]: Comparable histopathological injuries | heart histopathology (H&E) [32, 35]: comparable | serum levels of ALT, AST, uric acid, and creatinine [32]: significantly decreased all serum markers | CD4+ T cells in vaginal tissue (IHC, figure legends) ([33]; FIGS. 18 and 19, number / migration to lamina propria): dramatically decreased | CD45-positive cells in vaginal tissue (IHC, semi-quantitative) [33]: Mild to moderate CD45-positive cells spread across the submucosa | vaginal histology (H&E) [33]: considerable reduction in inflammation and injury to the vaginal epithelial mucosa | CXCR4 expression in the vaginal epithelial mucosa (IHC) [33]: significant decrease

OC(Cn1cncn1)(Cn1cncn1)c1ccc(F)cc1F [fluconazole]
liver histopathology (H&E) [31, 34]: moderate inflammatory cell infiltration in the perivascular regions, mild sinusoidal congestion, and few apoptotic cells | lung histopathology (H&E) [31, 34]: slightly ameliorated the lung damage | serum levels of ALT, AST, uric acid, and creatinine [31]: significant decrease in ALT levels only | liver histopathology (H&E) [32, 35]: Comparable histopathological injuries | heart histopathology (H&E) [32, 35]: comparable | serum levels of ALT, AST, uric acid, and creatinine [32]: significant decrease in all markers, except creatinine | CD45-positive cells in vaginal tissue (IHC, semi-quantitative) [33]: Mild to moderate CD45-positive cells spread across the submucosa | vaginal histology (H&E) [33]: modest sub-epithelial inflammatory reaction | CXCR4 expression in the vaginal epithelial mucosa (IHC) [33]: significant decrease
